The text below walks through data of the supplement of paper PMC10307832.

Holding throughout (experiment): relative viability (nuclei count vs DMSO), 5 days (fraction); higher = more cells survive
Compound in assay [1]: COc1cc2nc(N3CCCN(C)CC3)nc(NC3CCN(Cc4ccccc4)CC3)c2cc1OC + O=C(CCCCCCC(=O)Nc1ccccc1)NO [Vorinostat] (partner 1 µM)
Put shortly: (§1)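 For relative viability, nuclei counts in treated wells were divided by those in vehicle wells. Lung cancer cell lines had been pin-tool dosed in 1536-well plates the day after seeding and cultured for 5 days, then fixed and stained in one step (final 0.05% Triton X-100, 1% formaldehyde, 1 ug/ml Hoechst) and imaged at 4×. Doses were one drug alone or a fixed anchor-drug dose plus five library-drug doses (not always all listed) in √10 steps, and values are duplicate-plate medians.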

Compound in the assay “AZD6482 + OSI-027”: Cc1cc([C@@H](C)Nc2ccccc2C(=O)O)c2nc(N3CCOCC3)cc(=O)n2c1 [AZD6482] + COc1cccc2cc(-c3nc([C@H]4CC[C@H](C(=O)O)CC4)n4ncnc(N)c34)[nH]c12 [OSI-027] (partner 0.5 µM)
The method, boiled down: as §1

Compound in the assay “AZD6482 + Decitabine”: Cc1cc([C@@H](C)Nc2ccccc2C(=O)O)c2nc(N3CCOCC3)cc(=O)n2c1 [AZD6482] + Nc1ncn([C@H]2C[C@H](O)[C@@H](CO)O2)c(=O)n1 [Decitabine] (partner 2 µM)
Put shortly:
as §1

Compound in assay [2]: COc1cc2nc(N3CCCN(C)CC3)nc(NC3CCN(Cc4ccccc4)CC3)c2cc1OC + CC(C)C[C@H](NC(=O)[C@H](Cc1ccccc1)NC(=O)c1cnccn1)B(O)O [Bortezomib] (partner 0.002 µM)
Put shortly:
as §1

Take UMC-11: the relative viability in assay [1] (first compound 0.2 µM) was 0.361; in assay [1] (first compound 0.6325 µM), 0.453; in assay [1] (first compound 2 µM), 0.431; in assay [1] (first compound 6.325 µM), 0.317; in the assay with AZD6482 + OSI-027 (first compound 0.08 µM) it was 0.448; with AZD6482 + OSI-027 (first compound 0.253 µM), 0.464. The relative viability with AZD6482 + OSI-027 (first compound 0.8 µM) was 0.497; with AZD6482 + OSI-027 (first compound 2.53 µM), 0.459; with AZD6482 + OSI-027 (first compound 8 µM), 0.47; with AZD6482 + Decitabine (first compound 0.08 µM), 0.623; in the assay with AZD6482 + Decitabine (first compound 0.253 µM), 0.584; with AZD6482 + Decitabine (first compound 0.8 µM), 0.606. Moreover, the relative viability worked out at 0.613 with AZD6482 + Decitabine (first compound 8 µM); 0.737 in assay [2] (first compound 0.2 µM); 0.778 in assay [2] (first compound 0.6325 µM); 0.71 in assay [2] (first compound 2 µM); 0.594 in assay [2] (first compound 6.325 µM).
